Source: paper PMC10762035, “Molecular basis of human trace amine-associated receptor 1 activation” (Nature Communications, 2024)
Numbering of substitutions follows the chain as printed. “And” between values parts separate entries of the source, which are not always exact repeats. Equal values may be shown once. Read-outs that look alike come from different tables or passages of the source.

Columns and labels:
[1] = biological target: T1, hTA1 C88S (Homo sapiens, UniProt Q96RJ0, C88S); test: GloSensor cAMP accumulation assay, C88S mutant; type: cell-based
T1 construct: expressed in transfected cells; host or cells: HEK293T
T1 sequence (Q96RJ0 1-339 C88S): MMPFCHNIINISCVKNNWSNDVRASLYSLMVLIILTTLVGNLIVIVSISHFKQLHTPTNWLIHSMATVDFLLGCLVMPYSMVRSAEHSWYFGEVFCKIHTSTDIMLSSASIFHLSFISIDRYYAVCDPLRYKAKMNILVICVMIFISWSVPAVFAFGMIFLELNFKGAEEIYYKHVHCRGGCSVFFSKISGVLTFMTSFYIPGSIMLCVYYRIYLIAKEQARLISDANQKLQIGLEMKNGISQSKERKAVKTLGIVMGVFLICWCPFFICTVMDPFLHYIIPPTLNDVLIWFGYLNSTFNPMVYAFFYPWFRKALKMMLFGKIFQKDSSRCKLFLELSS

[2] = biological target: T2, hTA1 F195T (Homo sapiens, UniProt Q96RJ0, F195T); test: GloSensor cAMP accumulation assay, F195T mutant; type: cell-based;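 note: cells transiently co-expressing HA-FLAG-tagged hTA1 and the GloSensor cAMP biosensor, luminescence read 30 min after agonist addition at room temperature, concentration-response fitted by nonlinear regression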
T2 construct: expressed in transfected cells; host or cells: HEK293T
T2 sequence (Q96RJ0 1-339 F195T): T1 sequence (Q96RJ0 1-339 C88S) with S88C, F195T

[3] = biological target: T3, hTA1 T194A (Homo sapiens, UniProt Q96RJ0, T194A); test: GloSensor cAMP accumulation assay, T194A mutant; details: for Emax values, Mean: β-PEA = 100
T3 sequence (Q96RJ0 1-339 T194A): T1 sequence (Q96RJ0 1-339 C88S) with S88C, T194A

[4] = biological target: T4, hTA1 R83H (Homo sapiens, UniProt Q96RJ0, R83H); test: GloSensor cAMP accumulation assay, R83H mutant; type: cell-based; details: for ΔEmax values (each mutant value - WT average) / ΔpEC50 values (each mutant value - WT average): R83H mutant minus WT average; for Emax values, Mean: β-PEA = 100;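 for all read-outs here: cells transiently co-expressing hTA1 and a cAMP GloSensor, luminescence read 30 min after agonist addition at room temperature, concentration–response fitted by non-linear regression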
T4 construct: expressed in transfected cells; host or cells: HEK293T
T4 sequence (Q96RJ0 1-339 R83H): T1 sequence (Q96RJ0 1-339 C88S) with R83H, S88C

[5] = biological target: T5, hTA1 C96S (Homo sapiens, UniProt Q96RJ0, C96S); test: GloSensor cAMP accumulation assay, C96S mutant; type: cell-based; details: log[Compound]
T5 construct: expressed in transfected cells; host or cells: HEK293T
T5 sequence (Q96RJ0 1-339 C96S): T1 sequence (Q96RJ0 1-339 C88S) with S88C, C96S

[6] = C88S, Mean of fit per experiment
[7] = F195T mutant, Figure 5B, β-PEA = 100, each row one independent experiment (3 replicates)
[8] = T149A (so in the source), single experiments (3 replicates each)
[9] = R83H mutant, each line an independent experiment, 3 replicates
[10] = C96S, M = -5, single replicates (N=2)
[11] = C96S, M = -5.522, single replicates (N=2)
[12] = C96S, M = -6, single replicates (N=2)
[13] = C96S, M = -6.522, single replicates (N=2)
[14] = C96S, M = -7, single replicates (N=2)
[15] = C96S, M = -7.522, single replicates (N=2)
[16] = C96S, M = -8, single replicates (N=2)
[17] = C96S, M = -8.522, single replicates (N=2)
[18] = C96S, M = -9, single replicates (N=2)
[19] = C96S, M = -9.522, single replicates (N=2)
[20] = C96S, M = -10, single replicates (N=2)
[21] = C96S, M = -10.522, single replicates (N=2)
[22] = C96S, M = -11, single replicates (N=2)
[23] = C96S, M = -11.522, single replicates (N=2)
[24] = M = -11.522, single replicates, mutant block above C178S
[25] = M = -12, single replicates, mutant block above C178S
[26] = M = -12.522, single replicates, mutant block above C178S

## Cc1c(F)cccc1[C@H]1COC(N)=N1 [Ro5263397]
[1]; [6]
  Emax values: 109.361 and 91.1412
[1]; C88S, n=2
  Span ± SEM (Emax normalized to β-PEA): 100.25 ± 9.11
  pEC50 ± SEM: 8.78 ± 0.06
[1]; C88S, n=2, read-out: EC50
  EC50: 1.64 nM
[1]; C88S, relative to β-PEA
  Emax: 100.3%
[2]; F195T mutant, Figure 5B, each row one independent experiment (3 replicates)
  pEC50 values, Mean: 8.682 and 8.281
[2]; [7]
  Emax values, Mean: 106.681 and 96.1093
[2]; F195T, n=2
  Span ± SEM (Emax normalized to β-PEA): 101.40 ± 5.29
  pEC50 ± SEM: 7.68 ± 0.60
[2]; F195T, n=2, read-out: EC50
  EC50: 20.9 nM
[3]; T149A (so in the source) minus WT average
  ΔpEC50 values (each mutant value - WT average), Mean: -1.583 and -1.53 and -1.429
[3]; [8]
  pEC50 values, Mean: 7.248 and 7.301 and 7.402
  Emax values, Mean: 143.384 and 86.8999 and 99.8921
[3]; T194A
  EC50: 56.4 nM
  Span ± SEM (Emax normalized to β-PEA): 110.06
  pEC50 ± SEM: 7.32 ± 0.14
  reduction in potency vs wild type: over 30 fold
[4]
  ΔEmax values (each mutant value - WT average): -44.7513
  ΔpEC50 values (each mutant value - WT average): -0.3934 and -0.2739
[4]; [9]
  pEC50 values, Mean: 8.438 and 8.557
  Emax values, Mean: 41.952 and 25.7686
[4]; R83H, n=2
  Span ± SEM (Emax normalized to β-PEA): 33.86 ± 8.09
  pEC50 ± SEM: 8.5 ± 0.15
[4]; R83H, n=2, read-out: EC50
  EC50: 3.18 nM
[5]; [10]
  Normalized Luminescence Counts: 9.313 (2×) and 10.6308 and 10.8582 and 5.048 and -2.698
[5]; [11]
  Normalized Luminescence Counts: 2.723 and 6.018 and 1.4045 and 10.8582 and 101.879 and 20.5413
[5]; [12]
  Normalized Luminescence Counts: 1.4045 (2×) and 2.064 and 3.112 and 14.7315 and -4.6346
[5]; [13]
  Normalized Luminescence Counts: -1.891 (2×) and 0.08646 and -2.698 (2×) and -0.7614
[5]; [14]
  Normalized Luminescence Counts: -0.5726 and 2.723 and -2.55 and 37.9707 and -8.508 and -4.6346
[5]; [15]
  Normalized Luminescence Counts: 2.064 and 1.4045 and -1.232 and -2.698 and 12.7948 and -14.3176
[5]; [16]
  Normalized Luminescence Counts: -0.5726 and 0.08646 and -1.891 and 14.7315 (3×)
[5]; [17]
  Normalized Luminescence Counts: 0.08646 and 2.064 and -1.232 and 22.4779 and 6.985 (2×)
[5]; [18]
  Normalized Luminescence Counts: -3.868 and 0.08646 and -3.209 and 10.8582 (3×)
[5]; [19]
  Normalized Luminescence Counts: -3.209 and 0.08646 and -5.186 and 1.175 and 3.112 (2×)
[5]; [20]
  Normalized Luminescence Counts: -3.209 and 0.08646 and -0.5726 and 28.2877 and 5.048 and 61.21
[5]; [21]
  Normalized Luminescence Counts: -2.55 and -0.5726 and -3.868 and -0.7614 (2×) and 1.175
[5]; [22]
  Normalized Luminescence Counts: 0.7455 (2×) and 4.041 and 47.6538 and 53.4636 and 12.7948
[5]; [23]
  Normalized Luminescence Counts: 2.064 and 4.7 and 0.08646 and 8.922
[5]; [24]
  Normalized Luminescence Counts: 1.347 and 1.551 and 1.574 and 1.444 and 1.07 and 0.4821
[5]; [25]
  Normalized Luminescence Counts: 2.211 and 3.099 and 1.62 and 0.7492 and 1.283 and 0.5889
[5]; [26]
  Normalized Luminescence Counts: 0.07201 and 0.2541 and -0.1784 and 1.444 and 0.7492 and -0.5864

## CCC(CC1COC(N)=N1)c1ccccc1 (centres unmarked) [Ro5256390]
[1]; [6]
  Emax values: 141.143 and 102.28
[1]; C88S, relative to β-PEA
  Emax: 122%
[1]; pEC50 values, C88S, Mean of fit per experiment
  EC50: 3.91 nM and 2.46 nM
[1]; pEC50 ± SEM, C88S, n=2
  EC50: 3.09 nM
[1]; read-out: Span ± SEM (Emax normalized to β-PEA), C88S, n=2
  Emax: 122%
[2]; EC50, F195T, n=2
  EC50: 2.9 nM
[2]; [7]
  Emax values, Mean: 107.711
[2]; pEC50 values, Mean, F195T mutant, Figure 5B, each row one independent experiment (3 replicates)
  EC50: 1.63 nM and 4.03 nM
[2]; read-out: Emax values, Mean, F195T mutant, Figure 5B, β-PEA = 100, each row one independent experiment (3 replicates)
  Emax: 105%
[2]; read-out: Span ± SEM (Emax normalized to β-PEA), F195T, n=2
  Emax: 106 ± 1.33%
[3]; EC50, T194A
  EC50: 34.8 nM
[3]; [8]
  Emax values, Mean: 128.602 and 110.169 and 108.613
[3]; T194A
  reduction in potency vs wild type: over 5 fold
[3]; pEC50 values, Mean, T149A (so in the source), single experiments (3 replicates each)
  EC50: 34.8 nM and 27.7 nM and 14.2 nM
[3]; pEC50 ± SEM, T194A
  EC50: 24 nM
[3]; read-out: Span ± SEM (Emax normalized to β-PEA)
  Emax: 116 ± 9.22%
[4]; EC50, R83H, n=2
  EC50: 5.19 nM
[4]
  ΔEmax values (each mutant value - WT average): -44.6015
  ΔpEC50 values (each mutant value - WT average): -0.01027 and 0.0342
[4]; [9]
  Emax values, Mean: 58.7027 and 38.4174
[4]; pEC50 values (Mean), R83H mutant, each line an independent experiment, 3 replicates
  EC50: 5.46 nM and 4.93 nM
[4]; read-out: Span ± SEM (Emax normalized to β-PEA), R83H, n=2
  Emax: 48.6 ± 10.1%
[5]; [10]
  Normalized Luminescence Counts: -0.5726 and -3.209 and -1.891 and -16.2542 and -4.6346 and -2.698
[5]; [11]
  Normalized Luminescence Counts: -1.891 (2×) and -3.209 and -4.6346 and -8.508 and 10.8582
[5]; [12]
  Normalized Luminescence Counts: 4.041 and -2.55 and -0.5726 and 5.048 (2×) and -10.4444
[5]; [13]
  Normalized Luminescence Counts: 1.4045 and -2.55 and 2.723 and -0.7614 and -4.6346 and 3.112
[5]; [14]
  Normalized Luminescence Counts: 2.723 and -1.891 and 1.4045 and -0.7614 (2×) and -4.6346
[5]; [15]
  Normalized Luminescence Counts: 5.359 and -3.209 and 2.723 and -0.7614 and -10.4444 and 14.7315
[5]; [16]
  Normalized Luminescence Counts: 2.064 and -0.5726 (2×) and 30.2243 and -8.508 and 12.7948
[5]; [17]
  Normalized Luminescence Counts: 0.7455 and -1.891 and 4.7 and 14.7315 and 3.112 and 12.7948
[5]; [18]
  Normalized Luminescence Counts: 0.7455 and -1.232 and -1.891 and 18.6047 and 8.922 and -4.6346
[5]; [19]
  Normalized Luminescence Counts: 0.08646 and -3.209 and -2.55 and 3.112 and 1.175 and -0.7614
[5]; [20]
  Normalized Luminescence Counts: 1.4045 and -0.5726 and 0.7455 and 3.112 and -2.698 (2×)
[5]; [21]
  Normalized Luminescence Counts: -0.5726 and -2.55 and -1.232 and 5.048 and 6.985 and -2.698
[5]; [22]
  Normalized Luminescence Counts: 0.7455 and 0.08646 and 4.7 and 32.1609 and 18.6047 and 10.8582
[5]; [23]
  Normalized Luminescence Counts: 3.382 and 0.7455 and 1.4045 and 20.5413
[5]; [24]
  Normalized Luminescence Counts: 0.4362 and 0.4589 and 0.8459 and 2.031 and 1.818 and 1.444
[5]; [25]
  Normalized Luminescence Counts: 0.6183 and 0.1175 and -0.01903 and 3.527 and 0.8561 and 0.9629
[5]; [26]
  Normalized Luminescence Counts: -0.1556 (2×) and -0.2011 and 1.711 and 1.818 and 0.6424
